According to patent US10175229B2, “Rapid method for measuring cytotoxicity in non-RI system” (NAGASAKI UNIVERSITY, priority 2014, dated 2019):

Test system: Histiocytoma U937 cells
Experiment: Spontaneous and maximum release of labeled compound, time-resolved fluorometric assay (Eu assay)
Assay type: cell-based
Settings: for maximum release (B) / spontaneous release (A): U937 cells labeled with 25 μM compound for 15 min; for maximum release (B): lysed with 0.125% digitonin in 19% DMSO, time-resolved fluorescence with europium solution; for spontaneous release (A): supernatant added to europium solution, time-resolved fluorescence, wells without digitonin; for spontaneous release (%) (C) (100 × A/B): U937 cells, 25 μM compound, ratio of spontaneous to maximum release
Description: Histiocytoma U937 cells were cultured in 30 mL of RPMI1640 medium under the conditions of 37° C., 5% CO2 overnight, the culture medium (30 mL) was placed in a 50 mL conical tube, and the cell number was counted. After centrifugation at 1700 rpm at 4° C. for 5 min, the supernatant was removed, and the cell pellets were resuspended in RPMI1640 medium at 1×10^6 cells/mL. To the cell suspension (1 mL) in a 15 mL conical tube was added 2.5 μL of a compound represented by the formula (I) or a salt thereof (10 mM stock solution) (final concentration: 25 μM), and the mixture was incubated under the conditions of 37° C., 5% CO2 for 15 min. The cells were washed 3 times with 5 mL of RPMI1640 medium, and resuspended in 5 mL of RPMI1640 medium. The cell suspension (2 mL) was placed in a 15 mL conical tube containing 6 mL of RPMI1640 medium to adjust the cell concentration to 5×10^3 cells/100 μL. The cell suspension (100 μL) was seeded in 6 wells of a 96 flat bottom plate. 100 μL of RPMI1640 medium was added to wells for determining the amount of spontaneous release, and 90 μL of RPMI1640 medium was added to wells for determining the amount of maximum release. The plates were centrifuged at 500 rpm, room temperature for 2 min and incubated under 37° C., 5% CO2 condition for 30 min. A newly-prepared 0.125% digitonin solution in 19% DMSO (mixed solution of 3 mg digitonin, 0.456 mL DMSO and 1.944 mL H2O) (10 μL) was added to the aforementioned wells for determining the amount of maximum release, mixed well and further incubated for 30 min. After incubation, the cell suspension was mixed well again, and centrifuged at 1700 rpm, room temperature for 2 min. After the centrifugation, the supernatant (25 μL) was carefully transferred into wells containing 250 μL of europium solution in a 96 flat bottom plate, and 200 μL of the solution thereof was placed in a 96-well flat bottom plate.
The plate was allowed to stand for 15 min, and the time-resolved fluorescence was measured by ARVO multiplate reader.

SMILES | maximum release (B) | spontaneous release (A) | spontaneous release (%) (C) (100 × A/B)
CC(=O)OCOC(=O)c1cccc(-c2cccc(-c3cccc(C(=O)OCOC(C)=O)n3)n2)n1 [BATDA, bis(acetoxymethyl) 2,2′:6′,2″-terpyridine-6,6″-dicarboxylate, reference compound] | 86785 | 14795 | 17
CCCC(=O)OCOC(=O)c1cccc(-c2cc(OCCO)cc(-c3cccc(C(=O)OCOC(=O)CCC)n3)n2)n1 [Example 1, bis(butyryloxymethyl) 4′-(2-hydroxyethoxy)-2,2′:6′,2″-terpyridine-6,6″-dicarboxylate] | 65576 | 6347 | 9.7
CCCNC(=O)COc1cc(-c2cccc(C(=O)OCOC(C)=O)n2)nc(-c2cccc(C(=O)OCOC(C)=O)n2)c1 [Example 2, bis(acetoxymethyl) 4′-(2-oxo-2-(propylamino)ethoxy)-2,2′:6′,2″-terpyridine-6,6″-dicarboxylate] | 60521 | 7085 | 11.7
CC(=O)OCOC(=O)c1cccc(-c2cc(OCCO)cc(-c3cccc(C(=O)OCOC(C)=O)n3)n2)n1 [Example 3, bis(acetoxymethyl) 4′-(2-hydroxyethoxy)-2,2′:6′,2″-terpyridine-6,6″-dicarboxylate] | 69372 | 4890 | 7
CCCC(=O)OCOC(=O)c1cccc(-c2cc(OCC=O)cc(-c3cccc(C(=O)OCOC(=O)CCC)n3)n2)n1 [Example 4, bis(butyryloxymethyl) 4′-(2-oxyethoxy)-2,2′:6′,2″-terpyridine-6,6″-dicarboxylate] | 43224 | 3590 | 8.3
CCC(=O)OCOC(=O)c1cccc(-c2cc(OCCO)cc(-c3cccc(C(=O)OCOC(=O)CC)n3)n2)n1 [Example 5, bis(propionyloxymethyl) 4′-(2-hydroxyethoxy)-2,2′:6′,2″-terpyridine-6,6″-dicarboxylate] | 78831 | 6991 | 8.9
CCCC(=O)OCOC(=O)c1cccc(-c2cc(OCCCO)cc(-c3cccc(C(=O)OCOC(=O)CCC)n3)n2)n1 [Example 6, bis(butyryloxymethyl) 4′-(3-hydroxypropoxy)-2,2′:6′,2″-terpyridine-6,6″-dicarboxylate] | 103235 | 9538 | 9.2
CCCC(=O)OCOC(=O)c1cccc(-c2cc(OCCOCCO)cc(-c3cccc(C(=O)OCOC(=O)CCC)n3)n2)n1 [Example 7, bis(butyryloxymethyl) 4′-(2-(2-hydroxyethoxy)ethoxy)-2,2′:6′,2″-terpyridine-6,6″-dicarboxylate] | 63594 | 6133 | 9.6
CC(=O)OCOC(=O)c1cccc(-c2cc(CO)cc(-c3cccc(C(=O)OCOC(C)=O)n3)n2)n1 [Example 9, bis(acetoxymethyl) 4′-(hydroxymethyl)-2,2′:6′,2″-terpyridine-6,6″-dicarboxylate] | 127955 | 21343 | 16.7
